The results in this text go back to patent US8269022B2, “Polymorphs of enantiopure erdosteine” (Edmond Pharma S.R.L, priority 2007, dated 2012).

A short description of series [1]: Dissolution rate test (Intrinsic Dissolution Rate) of 150 mg tablets in 0.1M hydrochloric acid. It counts as physicochemical. The settings on record: FIG. 10. The method, then:
A dissolution rate test was performed in order to define the Intrinsic Dissolution Rate of Erdosteine Form I and Racemic Erdosteine. Six thin 150 mg tablets of S-erdosteine Form I and six 150 mg tablets of racemic Erdosteine were prepared by compression with a 10 ton press and their dissolution profile in 0.1M hydrochloric acid was evaluated. The two profiles are reported in FIG. 10, superimposed on the same graph. As can be clearly seen, the dissolution profile of Form I is very different from that of racemic, non-polymorphic Erdosteine. In fact, after 15 minutes more than 80% Form I is dissolved, while more that 25 minutes are necessary to dissolve 40% racemic Erdosteine. The higher solubility of Form I allows to obtain an improved pharmaceutical form in terms of dosage and bioavailability.

Series [2] can be described thus: Flowability test (flow through the funnel). It counts as physicochemical. The settings on record: for Flowing time (mean value): flowability comparison, powder. An excerpt: These advantages will be clearer by considering the following comparison between Form I of S-Erdosteine and the amorphous racemic form. […] Conversely, Form I has a mean flowing time of about 35 seconds, which allows to handle and transfer the powder more easily, and to avoid the use or reduce the amount of glidants in the finished pharmaceutical formulation.

As for `O=C(O)CSCC(=O)NC1CCSC1=O` (racemic) [Racemic Erdosteine], the “time necessary to dissolve 40%” value in series [1] was above 25 min. For the same compound, in series [2], the “Flowing time (mean value)” value is “∞”. In series [2] (result in words), the “flowability (flow through the funnel)” value is “does not flow through the funnel”.

Take `O=C(O)CSCC(=O)NC1CCSC1=O` (stereo not drawn) [Erdosteine Form I]: in series [1] (after 15 minutes), the amount dissolved result was “more than 80%”. In addition, the “Flowing time (mean value)” value in series [2] is 35.6″. The mean flowing time entry in series [2] (powder through the funnel) is “about 35 seconds”.
